Measurements as given in patent US20220009914A1, “Analogs of Nitrofuran Antibiotics to Combat Resistance” (The Trustees of Indiana University, priority 2020, published 2022).

Experiments:
native MDH = target: T1, native MDH (Sus scrofa, UniProt P00346); test: native MDH activity counter-screen in the presence of E. coli NfsB nitroreductase; assay type: biochemical, pig; settings: with E. coli NfsB nitroreductase; read-out: Native MDH Activity w/NfsB IC50
T1 sequence (P00346 25-338): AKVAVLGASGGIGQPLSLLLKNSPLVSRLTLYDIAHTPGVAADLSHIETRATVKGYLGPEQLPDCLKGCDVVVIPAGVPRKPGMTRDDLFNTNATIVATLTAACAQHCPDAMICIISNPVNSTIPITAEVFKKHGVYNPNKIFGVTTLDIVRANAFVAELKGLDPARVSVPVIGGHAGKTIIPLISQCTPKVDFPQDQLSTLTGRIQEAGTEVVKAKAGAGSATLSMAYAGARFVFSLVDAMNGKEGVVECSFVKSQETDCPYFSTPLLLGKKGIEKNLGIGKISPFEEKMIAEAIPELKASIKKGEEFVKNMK
Method: Evaluating compounds for inhibition in the GroEL/ES-mediated dMDH refolding assay and native MDH activity counter-screen in the presence of E. coli NfsB nitroreductase. These assays were performed nearly identically to those mentioned above, but with a couple distinct modifications. […] The remainder of the assay was conducted as in our standard protocol where no NfsB nitroreductase was present. […] Results presented represent the averages of IC50 values obtained from at least four replicates in each assay.

[1] = system: Enterobacter cloacae strain CDC 442-68 (ATCC #13047); test: bacterial proliferation assay, E. cloacae; assay type: cell-based; settings: ATCC13047, read-out: Bacterial Proliferation EC50 E. cloacae
Method: All compounds were evaluated for inhibiting the proliferation of E. coli and each of the ESKAPE bacteria. Results presented represent the averages of EC50 values obtained from at least four replicates. Evaluating compounds for inhibition of bacterial cell proliferation.
Growth Media: E. coli were grown with LB medium and all ESKAPE bacteria were grown in Brain Heart Infusion (BHI) medium (Becton, Dickinson and Company), with all liquid cultures supplemented with 25 mg/L Ca^2+ and 12.5 mg/L Mg^2+ to mimic physiological free concentrations of these cations. A 10 mg/mL Ca^2+ stock solution was prepared by dissolving 1.84 g of CaCl2.2H2O in 50 mL of deionized water, and a 10 mg/mL Mg^2+ stock solution was prepared by dissolving 4.18 g of MgCl2.6H2O in 50 mL deionized water—filter sterilized using 0.2 μm cellulose-acetate filters. 2.5 mL of the sterile 10 mg/mL Ca^2+ stock and 1.25 mL of the sterile 10 mg/mL Mg^2+ stock solutions were added per 1 L of autoclaved LB or BHI media to obtain 25 mg/L Ca^2+ and 12.5 mg/L Mg^2+ ions, respectively.
General Assay Protocol: Stock bacterial cultures were streaked onto LB or BHI agar plates and grown overnight at 37° C. Fresh aliquots of cation supplemented media were inoculated with single bacterial colonies and the cultures were grown overnight at 37° C. with shaking (240 rpm). The following morning, cultures were diluted 10-fold into fresh media and grown at 37° C. until bacteria had reached mid-log phase growth (OD600˜0.4-0.6). The cultures were then diluted into fresh media to achieve final OD600 readings of 0.017. Aliquots of these diluted cultures (30 μL) were added to clear, flat-bottom 384-well polystyrene plates that were previously stamped with 0.5 μL of test compounds in 20 μL of media (yielding initial OD600=0.01 bacterial cultures). All compounds were tested in dose-response with concentration ranges during the proliferation assays from 100 μM to 46 nM (3-fold dilution series). A second set of baseline control plates were prepared analogously, but without any bacteria added, to correct for possible compound absorbance and/or precipitation. […] Plates were then read at 600 nm using a Molecular Devices SpectraMax Plus384 microplate reader. […] Results presented represent the averages of EC50 values obtained from at least four replicates.
Evaluating analogs for inhibiting the growth of E. coli and the ESKAPE bacteria. Analogs were initially tested for antibacterial efficacy against representative strains of antibiotic-sensitive E. coli and the ESKAPE bacteria. To determine compound efficacy, bacterial proliferation assays were carried out in liquid media culture supplemented with physiological concentrations of free calcium and magnesium cations. For these assays, bacterial cultures (OD600=0.01) were exposed to test compounds in 8-point, 3-fold dilution series (100 μM to 46 nM concentration range), in 384-well plates. After addition of compounds to cultures, the plates were sealed with Breathe-Easy gas permeable membranes and allowed to grow to mid-log phase (OD600˜0.4-0.6), whereupon final OD600 readings were taken to assess for bacterial growth and inhibition.

in vitro [2] = settings: human
Method: (§1) Evaluating compound effects on the viability of human colon and small intestine cells. […] Evaluating compound effects on the viability of human colon and small intestine cells. Evaluation of compound cytotoxicities to FHC colon and FHs 74 Int small intestine cells were performed using Alamar Blue-based viability assays. […] FHs 74 Int cells were maintained in Hybri-care medium (ATCC 46-X) supplemented with 30 ng/mL recombinant epidermal growth factor (EGF) and 10% FBS (Midwest Scientific, USDAFBS).

in vitro [3] = settings: human; remark: listed apart in the source
Method: as §1

| Structure (SMILES) | IC50 (native MDH) [µM] | EC50 [1] [µM] | CC50 at 48 h (in vitro [2]) [µM] | CC50 at 48 h (in vitro [3]) [µM] |
| --- | --- | --- | --- | --- |
| O=C(N/N=C/c1ccc(O)c2ncccc12)c1ccccc1Oc1ccccc1 [Compound 10, N′-((8-hydroxyquinolin-5-yl)methylene)-2-phenoxybenzohydrazide] | > 56 | > 100 |  |  |
| O=C(N/N=C/c1ccc([N+](=O)[O-])o1)c1ccc(NS(=O)(=O)c2cccs2)cc1 [Compound 26, N-(4-(2-((5-nitrofuran-2-yl)methylene)hydrazine-1-carbonyl)phenyl)thiophene-2-sulfonamide] | > 56 | > 100 | > 100 | 70 |
| O=C(N/N=C/c1ccc([N+](=O)[O-])o1)c1cccc(Oc2ccccc2)c1 [Compound 24, N′-((5-nitrofuran-2-yl)methylene)-3-phenoxybenzohydrazide] | > 56 | > 100 |  |  |
| O=C(N/N=C/c1ccccc1)c1ccccc1 [Compound 38, N′-benzylidenebenzohydrazide] | > 56 | > 100 | > 100 | > 100 |
| O=C(N/N=C/c1ccc([N+](=O)[O-])o1)c1cccc2ccccc12 [Compound 22, N′-((5-nitrofuran-2-yl)methylene)-1-naphthohydrazide] | > 56 | > 100 |  |  |
| O=C(N/N=C/c1ccc(O)c2ncccc12)c1cccs1 [Compound 3, N′-((8-hydroxyquinolin-5-yl)methylene)thiophene-2-carbohydrazide] | > 56 | 92 | 85 | 86 |
| COc1ccc(C(=O)N/N=C/c2cccc3ncccc23)cc1 [Compound 31, 4-methoxy-N′-(quinolin-5-ylmethylene)benzohydrazide] | > 56 | > 100 | > 100 | > 100 |
| O=C(N/N=C/c1ccc(O)c2ncccc12)c1ccccc1 [Compound 5, N′-((8-hydroxyquinolin-5-yl)methylene)benzohydrazide] | > 56 | 80 |  |  |
| O=C(N/N=C/c1ccc(O)c2ncccc12)c1ccncc1 [Compound 6, N′-((8-hydroxyquinolin-5-yl)methylene)isonicotinohydrazide] | > 56 | > 100 | > 100 | 75 |
| O=C(N/N=C/c1ccc(O)c2ncccc12)c1cccc(Oc2ccccc2)c1 [Compound 11, N′-((8-hydroxyquinolin-5-yl)methylene)-3-phenoxybenzohydrazide] | > 56 | > 100 |  |  |
| O=C(N/N=C/c1ccc(O)c2ncccc12)c1ccc(NS(=O)(=O)c2ccc(Br)cc2)cc1 [Compound 14, 4-bromo-N-(4-(2-((8-hydroxyquinolin-5-yl)methylene)hydrazine-1-carbonyl)phenyl)benzenesulfonamide] | > 56 | > 100 |  |  |
| O=C(N/N=C/c1ccc(O)c2ncccc12)c1ccc(NS(=O)(=O)c2cccs2)cc1 [Compound 13, N-(4-(2-((8-hydroxyquinolin-5-yl)methylene)hydrazine-1-carbonyl)phenyl)thiophene-2-sulfonamide] | > 56 | > 100 |  |  |
| CCN(CC)S(=O)(=O)c1cccc(C(=O)N/N=C/c2ccc(O)c3ncccc23)c1 [Compound 12, N,N-diethyl-3-(2-((8-hydroxyquinolin-5-yl)methylene)hydrazine-1-carbonyl)benzenesulfonamide] | > 56 | > 100 |  |  |
